From ChEMBL document CHEMBL1201862, “PubChem BioAssay data set” (2004) come the findings set out here.

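Five compound concentrations were applied to cells in 96-well plates for 48 hours; endpoints were derived by simple linear interpolation of the resulting dose-response curve. At the GI50, growth is halved.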 Active and inactive are the calls of the source. Cut-off read from the data, not from the text of the source: active = GI50 up to about 1.1 µM and inactive = higher.

Assay in all cases: DTP human tumour cell line panel, 48 h
The test system of experiment [1] is DMS-114.
Experiment [2] concerns DMS-273.
For experiment [3], the system named is HOP-18.
Experiment [4] has as its system KM-20L2.
The subject of experiment [5] is LXFL 529.
The test system of experiment [6] is M19-MEL.
The subject of experiment [7] is RXF 631.
Experiment [8] has as its system DLD-1.
The test system of experiment [9] is XF498.

Broadly, the GI50 is the concentration giving 50% growth inhibition.

As for `CCOC(=O)c1c(/C=N\Nc2ccccc2)nc2ccccc2c1-c1ccccc1`, the GI50 is 41.6 µM (inactive) in [1]; 25 µM (inactive) in [2]; 31 µM (inactive) in experiment [3]; 38.5 µM (inactive) in [4]; 27.2 µM (inactive) in [5]; 26.8 µM (inactive) in experiment [6]. The GI50 in experiment [7] was 41.2 µM (inactive).

Regarding `COc1ccc2c[n+](C)c3c4cc(OC)c(OC)cc4ccc3c2c1`, the GI50 is 10.8 µM (inactive) in experiment [8]; 1.05 µM (active) in experiment [1]; 2.28 µM (inactive) in experiment [2]; 28.6 µM (inactive) in experiment [3]; 3.52 µM (inactive) in [4]; 1.21 µM (inactive) in experiment [5]. Moreover, the GI50 was 12.4 µM (inactive) in [6], 15.5 µM (inactive) in [7] and 9.84 µM (inactive) in experiment [9].

On to `N#CCCN(c1ccc(/C=C2\N=C(c3ccc(Cl)cc3)OC2=O)cc1)S(=O)(=O)c1ccccc1`, for which the GI50 in experiment [8], in experiment [1], in experiment [2], in experiment [4], in experiment [5] and in experiment [6] was > 100 µM (inactive) in each case. In addition, the GI50 in [7] and in experiment [9] was > 100 µM (inactive) in each case.

Regarding `c1ccc2c(c1)Cc1c(Cc3csc4ccccc34)ccc3cccc-2c13`, the GI50 in [8], in experiment [1], in [2], in experiment [4], in experiment [5] and in experiment [6] was > 100 µM (inactive) each time. The GI50 in [7] and in [9] was > 100 µM (inactive) in each case.

As for `CN(C)CCn1c2c3ccccc3ccc2c2oc(=O)c3ccccc3c21`, the GI50 in experiment [8] is 5.11 µM (inactive); in [3], 16.1 µM (inactive); in experiment [4], 7.08 µM (inactive); in experiment [5] it was 4.98 µM (inactive); in experiment [6], 5.46 µM (inactive); in experiment [7] it was 4.53 µM (inactive). Besides, the GI50 in [9] was 15.3 µM (inactive).

`Cn1c(=O)oc2cc(C3CCC(=O)N3Cc3csc(-c4ccccc4)n3)ccc21` (stereo not given): the GI50 was 86.9 µM (inactive) in experiment [8]; > 100 µM (inactive) in experiment [1]; 89.5 µM (inactive) in experiment [2]; > 100 µM (inactive) in [3]; > 100 µM (inactive) in [4]; 96.6 µM (inactive) in experiment [5]. Also, the GI50 in experiment [6] is > 100 µM (inactive); in experiment [9], 67.1 µM (inactive).

Regarding `Cc1ccccc1C1CC(c2ccccc2)=NO1` (stereo not given), the GI50 in [8], in experiment [1], in experiment [2], in experiment [3], in [4] and in [5] was > 100 µM (inactive) throughout. For the same compound, in experiment [7], the GI50 is > 100 µM (inactive).

As for `O=C1CCC(=O)N2CCCCN12`, the GI50 in experiment [8], in experiment [1], in experiment [2], in experiment [3], in [4] and in experiment [5] was > 100 µM (inactive) each time. Further, the GI50 in experiment [6] and in experiment [7] was > 100 µM (inactive) in each case.

Regarding `CN(CCCN1C(=O)c2cccc3cc([N+](=O)[O-])cc(c23)C1=O)CCN(C)CCCN1C(=O)c2cccc3cc([N+](=O)[O-])cc(c23)C1=O`, the GI50 in experiment [1] was 33.6 µM (inactive); in experiment [2] it was 11.4 µM (inactive); in experiment [3] it was > 39.3 µM (inactive); in experiment [4] it was > 39.3 µM (inactive); in experiment [5], 2.45 µM (inactive); in experiment [6] it was 18.2 µM (inactive). Also, the GI50 in experiment [7] and in experiment [9] was > 39.3 µM (inactive) each time.

Consider `CCCc1n[nH]c(CCC(=O)N(Cc2ccccc2)Cc2ccccc2)c1CC`, for which the GI50 in [8], in experiment [1], in experiment [2], in experiment [3], in experiment [4] and in [5] was > 100 µM (inactive) throughout. The GI50 in experiment [6], in experiment [7] and in experiment [9] was > 100 µM (inactive) each time.

Turning to `CCOC(=O)C12CCCC1(O)N(NC(=O)OC(C)(C)C)C(C)=C2C(=O)OC` (stereo not given), the GI50 in [8], in experiment [1], in [2], in experiment [3], in experiment [4] and in experiment [5] was > 100 µM (inactive) in each case. The GI50 in [6], in experiment [7] and in [9] was > 100 µM (inactive) each time.

Turning to `NC(N)NCCCc1cn2c(n1)C1CCCN1C(=O)C2Cc1ccccc1` (stereo not given), the GI50 in experiment [8], in experiment [1], in experiment [2], in [4], in experiment [5] and in [6] was > 100 µM (inactive) in each case. Further, the GI50 in [7] and in [9] was > 100 µM (inactive) throughout.

Regarding `Cc1cccc(C)c1NC(=O)CCc1nnc2s/c(=C\c3ccc(Cl)cc3)c(=O)n12`, the GI50 in experiment [8] is 37.8 µM (inactive); in experiment [1], > 100 µM (inactive); in experiment [2], 54.6 µM (inactive); in [3] it was > 100 µM (inactive); in experiment [4], > 100 µM (inactive); in [5], 75.7 µM (inactive). For the same compound, the GI50 in experiment [6] was > 100 µM (inactive); in [9], 52.8 µM (inactive).

`O=CN1CCN(C=S)CC1`: the GI50 in experiment [8], in experiment [1], in experiment [2], in experiment [4], in [5] and in [6] was > 100 µM (inactive) each time. For the same compound, the GI50 in experiment [7] and in experiment [9] was > 100 µM (inactive) in each case.

For the compound `Cc1ccc2c(c1)SC(c1cc3c(cc1Br)OCO3)S2` (stereo not given), the GI50 is > 31.6 µM (inactive) in experiment [8]; 15.8 µM (inactive) in [1]; 20 µM (inactive) in experiment [2]; > 31.6 µM (inactive) in experiment [3]; 26.1 µM (inactive) in experiment [4]; > 31.6 µM (inactive) in experiment [5]. The GI50 in experiment [6] was 28.6 µM (inactive); in [7] it was > 10 µM (inactive); in experiment [9] it was > 100 µM (inactive).

For `COC(=O)[C@@H]1C(=O)O[C@@H](c2cc(OC)c(OC)cc2OC)[C@@H]1C(=O)OC.COC(=O)[C@H]1C(=O)O[C@@H](c2cc(OC)c(OC)cc2OC)[C@@H]1C(=O)OC`, the GI50 in experiment [8], in [1], in experiment [2], in experiment [4], in experiment [5] and in [6] was > 100 µM (inactive) each time. The GI50 in experiment [7] and in [9] was > 100 µM (inactive) in each case.

Consider `COC(=O)C1C(C(=O)OC)C2(OC)c3ccccc3-c3ccccc3C12` (stereo not given), for which the GI50 was 33.3 µM (inactive) in [8]; 20.6 µM (inactive) in experiment [1]; 16.7 µM (inactive) in experiment [2]; 55.1 µM (inactive) in [3]; 26.2 µM (inactive) in experiment [4]; 44.1 µM (inactive) in experiment [5]. Besides, the values for the GI50 in experiment [6] and in experiment [7] were 33 µM (inactive) and 54.8 µM (inactive), respectively.

Regarding `COc1ccc(/C=C/c2cc(OC)c(OC(C)=O)c(OC)c2)cc1`, the GI50 in [8] was 29.9 µM (inactive); in experiment [1] it was 26.5 µM (inactive); in experiment [2] it was 31.2 µM (inactive); in [4] it was 35.1 µM (inactive); in experiment [5], 27.5 µM (inactive); in experiment [6] it was 30.1 µM (inactive). Besides, the GI50 in experiment [7] is 36.1 µM (inactive); in [9] it was 34.5 µM (inactive).
